Source: ChEMBL document CHEMBL1201862, “PubChem BioAssay data set” (2004)
Activity calls are given as the source filed them.

Assays:
[1] = target: T1, High affinity choline transporter 1 (Homo sapiens, UniProt Q9GZV3); assay: CHT inhibitors, dose response, cell-based, 5-point CRC, membrane potential dye (AID 504840); type: functional
T1 sequence (Q9GZV3 whole entry): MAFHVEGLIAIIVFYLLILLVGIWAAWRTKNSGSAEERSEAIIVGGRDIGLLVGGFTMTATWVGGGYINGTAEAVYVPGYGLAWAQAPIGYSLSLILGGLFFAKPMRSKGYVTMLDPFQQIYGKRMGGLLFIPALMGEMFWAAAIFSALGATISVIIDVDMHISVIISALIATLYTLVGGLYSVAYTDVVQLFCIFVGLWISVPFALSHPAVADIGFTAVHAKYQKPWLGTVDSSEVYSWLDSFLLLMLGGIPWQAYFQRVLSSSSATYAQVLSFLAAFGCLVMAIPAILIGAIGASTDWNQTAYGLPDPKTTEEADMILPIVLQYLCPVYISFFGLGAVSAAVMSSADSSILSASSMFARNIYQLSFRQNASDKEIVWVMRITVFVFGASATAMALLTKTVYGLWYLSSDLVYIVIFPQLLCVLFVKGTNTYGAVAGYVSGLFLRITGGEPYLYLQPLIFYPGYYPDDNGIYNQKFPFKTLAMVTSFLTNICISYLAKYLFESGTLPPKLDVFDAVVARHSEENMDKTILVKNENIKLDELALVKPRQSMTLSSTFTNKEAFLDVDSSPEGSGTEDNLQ

Large T antigen = Large T antigen (Simian virus 40, UniProt P03070); type: functional, Betapolyomavirus macacae;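 note: Confirmatory-stage PubChem screen for compounds that inhibit SV40 T antigen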
[2] = target: T1, High affinity choline transporter 1; assay: CHT inhibitors, dose response, cell-based, 10-point CRC, membrane potential dye (AID 588401); type: functional;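 note: membrane potential dye fluorescence of choline-evoked depolarization via CHT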
Insulin-degrading enzyme [3] = target: T2, Insulin-degrading enzyme (Homo sapiens, UniProt P14735); assay: activators of endogenous IDE in HEK cells, dose response, cell-based, fluorescence polarization (AID 588439); type: functional
T2 sequence (P14735 whole entry): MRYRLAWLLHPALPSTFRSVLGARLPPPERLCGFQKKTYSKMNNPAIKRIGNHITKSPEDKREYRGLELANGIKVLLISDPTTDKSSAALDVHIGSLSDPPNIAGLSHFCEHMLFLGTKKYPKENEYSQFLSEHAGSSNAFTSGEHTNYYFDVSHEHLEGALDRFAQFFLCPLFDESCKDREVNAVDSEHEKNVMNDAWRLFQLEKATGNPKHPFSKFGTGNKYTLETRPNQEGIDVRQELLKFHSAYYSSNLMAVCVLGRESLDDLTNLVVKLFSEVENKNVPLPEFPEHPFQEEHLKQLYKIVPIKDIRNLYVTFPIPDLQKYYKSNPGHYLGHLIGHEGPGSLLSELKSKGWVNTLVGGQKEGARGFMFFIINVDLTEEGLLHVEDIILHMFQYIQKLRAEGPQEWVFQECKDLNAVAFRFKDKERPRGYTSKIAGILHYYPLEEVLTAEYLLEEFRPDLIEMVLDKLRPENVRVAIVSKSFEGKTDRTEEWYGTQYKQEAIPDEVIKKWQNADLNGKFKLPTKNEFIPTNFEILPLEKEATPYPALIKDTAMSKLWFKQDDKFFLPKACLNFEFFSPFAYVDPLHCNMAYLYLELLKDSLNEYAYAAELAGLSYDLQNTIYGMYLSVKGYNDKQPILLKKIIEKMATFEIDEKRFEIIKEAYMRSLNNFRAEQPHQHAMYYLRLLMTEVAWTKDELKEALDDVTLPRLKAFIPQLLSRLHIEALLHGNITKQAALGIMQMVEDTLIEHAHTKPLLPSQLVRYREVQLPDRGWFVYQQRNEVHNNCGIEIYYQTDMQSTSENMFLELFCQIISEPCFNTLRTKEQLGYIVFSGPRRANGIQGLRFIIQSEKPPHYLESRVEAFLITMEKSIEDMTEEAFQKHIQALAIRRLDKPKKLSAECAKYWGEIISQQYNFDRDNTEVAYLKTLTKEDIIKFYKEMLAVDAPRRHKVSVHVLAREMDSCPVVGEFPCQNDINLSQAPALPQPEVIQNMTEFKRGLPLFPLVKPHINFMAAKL

HEK293 [4] = assay: optical interference in Abeta FP readout, dose response, artefact control for IDE activator project, biochemical, fluorescence polarization (AID 588442); type: functional, cell-based; settings: Homo sapiens
HEK293 [5] = assay: HEK cell cytotoxicity by LDH release, dose response, cytotoxicity control for IDE activator project, fluorescence, HEK cells (AID 588440); type: functional, cell-based; settings: Homo sapiens;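 note: cytotoxicity by LDH release measuring loss of membrane integrity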
Insulin-degrading enzyme [6] = target: T2, Insulin-degrading enzyme; assay: activators of recombinant IDE enzyme, dose response, counter-screen for IDE activator project, biochemical, fluorescence polarization (AID 588681)
[7] = target: T3, Small ubiquitin-related modifier 1 (Homo sapiens, UniProt P63165); assay: inhibitors of SUMO1 partner interactions, dose response, biochemical, FRET (AID 624383); type: functional; settings: read-out: IC50_Mean
Streptokinase A = target: T4, Streptokinase A (Streptococcus pyogenes serotype M1, UniProt P10520); assay: S. pyogenes streptokinase expression inhibitors, potency, dose response, plasminogen activation absorbance, OD405 (AID 1914); type: functional, Streptococcus pyogenes M1 GAS;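 note: secreted streptokinase activity via plasminogen activation per viability signal from cell pellet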
T4 sequence (P10520 whole entry): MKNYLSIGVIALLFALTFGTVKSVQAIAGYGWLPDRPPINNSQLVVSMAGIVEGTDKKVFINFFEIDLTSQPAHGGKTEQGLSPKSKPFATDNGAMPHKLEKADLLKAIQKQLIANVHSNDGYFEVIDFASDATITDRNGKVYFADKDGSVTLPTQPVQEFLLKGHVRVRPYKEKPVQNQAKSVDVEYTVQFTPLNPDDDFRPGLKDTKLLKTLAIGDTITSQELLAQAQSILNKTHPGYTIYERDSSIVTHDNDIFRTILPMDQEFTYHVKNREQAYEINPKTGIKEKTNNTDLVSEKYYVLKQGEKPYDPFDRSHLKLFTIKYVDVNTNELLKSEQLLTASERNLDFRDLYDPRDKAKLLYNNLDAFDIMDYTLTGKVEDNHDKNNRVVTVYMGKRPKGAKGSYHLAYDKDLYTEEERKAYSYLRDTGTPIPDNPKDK

[8] = target: Dual specificity tyrosine-phosphorylation-regulated kinase 1A (Rattus norvegicus, UniProt Q63470); type: biochemical, Homo sapiens
[9] = target: DNA (cytosine-5)-methyltransferase 1 (Homo sapiens, UniProt P26358); assay: DNMT1 methyltransferase inhibitors, confirmation, biochemical, fluorescent molecular beacon (AID 602386); type: functional
[10] = target: T3, Small ubiquitin-related modifier 1; assay: inhibitors of SUMO1 peptide binding, dose response, biochemical, fluorescence polarization, uHTS hits (AID 624382); type: functional; settings: read-out: IC50_Mean
[11] = target: T5, Probable nicotinate-nucleotide adenylyltransferase (Staphylococcus aureus (strain N315), UniProt P65502); type: functional, Staphylococcus aureus subsp. aureus N315;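 for IC50 Mean: confirmatory dose-response retesting of NadD inhibitor hits first found in an ultra-high-throughput screen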
[12] = system: Streptococcus sp. 'group A'; assay: growth inhibition of control SK(-) GAS strain, dose response, counter-screen for streptokinase expression inhibitor project, luminescence, kanamycin, BacTiterGlo, confirmation (AID 1900); type: functional, organism-based
Streptococcus = assay: Group A Streptococcus viability loss, dose response, counter-screen for streptokinase expression inhibitor project, luminescence, BacTiterGlo (AID 1915); type: functional, organism-based;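 note: potency for reduction of bacterial viability or growth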
[13] = target: T5, Probable nicotinate-nucleotide adenylyltransferase; type: functional, Staphylococcus aureus subsp. aureus N315; settings: read-out: IC50_Mean
[14] = nonselective inhibitors of cellular cAMP signaling, dose response, counter-screen for MC4R biased antagonist project, cell-based, TR-FRET cAMP detection (AID 602305); type: functional;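 note: U2OS cells stimulated with forskolin near its EC80 as the cAMP inducer; potency is for inhibition of forskolin-stimulated cAMP signaling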
Melanocortin receptor 4 = Melanocortin receptor 4 (Homo sapiens, UniProt P32245); assay: MC4R antagonist potency on cAMP, dose response, cell-based, TR-FRET, biased antagonists (AID 602298); type: functional;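 note: antagonist potency against agonist-stimulated cAMP production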
[15] = target: 72 kDa type IV collagenase (Homo sapiens, UniProt P08253); assay: Dose Response validation of uHTS RPN11 inhibitor hits using a MMP-2 Fluorescence assay.; type: functional
[16] = target: 26S proteasome non-ATPase regulatory subunit 14 (Homo sapiens, UniProt O00487); assay: inhibition of proteasome subunit RPN11 – biochemical, fluorescence polarization, uHTS hits, confirmation (AID 602368); type: functional
Prothrombin = Prothrombin (Bos taurus, UniProt P00735); assay: thrombin inhibition, dose response, biochemical, fluorescence polarization, uHTS hits (AID 602369); type: functional
Aurora kinase B = Aurora kinase B (Homo sapiens, UniProt Q96GD4); type: functional
Aurora kinase A = Aurora kinase A (Homo sapiens, UniProt O14965); type: functional;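 note: value from the Navigating the Kinome kinase panel profiling, panel entry STK6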
[17] = target: T6, Ubiquitin-conjugating enzyme E2 N (Homo sapiens, UniProt P61088); type: functional
T6 sequence (P61088 whole entry): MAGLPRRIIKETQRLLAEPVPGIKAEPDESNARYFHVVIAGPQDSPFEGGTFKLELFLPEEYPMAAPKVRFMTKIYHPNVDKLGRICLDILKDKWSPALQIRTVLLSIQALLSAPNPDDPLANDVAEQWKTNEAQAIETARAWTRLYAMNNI

Bcl-2-related protein A1 = target: T7, Bcl-2-related protein A1 (Mus musculus, UniProt Q07440); type: functional;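 note: confirmatory dose–response counterscreen on Bfl-1, used to check hits from a UBC13 polyubiquitin inhibitor campaign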
T7 sequence (Q07440 whole entry): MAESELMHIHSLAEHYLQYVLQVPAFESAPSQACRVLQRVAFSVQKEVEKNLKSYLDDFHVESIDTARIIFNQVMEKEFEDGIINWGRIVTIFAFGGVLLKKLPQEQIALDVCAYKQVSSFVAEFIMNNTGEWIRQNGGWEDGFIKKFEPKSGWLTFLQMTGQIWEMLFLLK

[18] = target: T6, Ubiquitin-conjugating enzyme E2 N; type: functional; remark: listed apart in the source
Galanin receptor type 3 = Galanin receptor type 3 (Homo sapiens, UniProt O60755); assay: Fluorescence-based cell-based primary high throughput dose response assay to identify antagonists of the Galanin Receptor 3 (GalR3).; type: functional
[19] = HepG2 cell cytotoxicity, dose response, cytotoxicity control for Shn3 inhibitor project, CellTiter-Glo, cherry-picked (AID 624134); type: functional, cell-based
[20] = Shn3 3'UTR reporter inhibitors, dose response, cell-based, Clone20 osteoblasts, firefly luciferase, cherry-picked (AID 624132); type: functional;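 note: firefly luciferase luminescence from reporter carrying the Shn3 3'UTR in osteoblasts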
[21] = control 3'UTR Renilla luciferase suppression, dose response, counter-screen for Shn3 inhibitor project, cell-based, Clone20-Shn3RL, cherry-picked (AID 624133); type: functional
cells = type: functional, cell-based; settings: HEK-CNG
[22] = inhibitors of clade B AD8 Env fusion, dose response, cell-based, cherry-pick (AID 652062); type: functional;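 note: luciferase signal from cell-cell fusion driven by HIV-1 clade B AD8 Env; potency is for inhibitors of fusion seen as a drop in luminescence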

T5 sequence (P65502 whole entry): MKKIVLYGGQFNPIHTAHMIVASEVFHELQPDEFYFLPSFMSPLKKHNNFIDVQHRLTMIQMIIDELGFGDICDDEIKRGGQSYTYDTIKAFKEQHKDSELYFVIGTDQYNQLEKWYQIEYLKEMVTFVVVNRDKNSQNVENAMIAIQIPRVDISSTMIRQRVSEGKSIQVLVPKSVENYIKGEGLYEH
T3 sequence (P63165 whole entry): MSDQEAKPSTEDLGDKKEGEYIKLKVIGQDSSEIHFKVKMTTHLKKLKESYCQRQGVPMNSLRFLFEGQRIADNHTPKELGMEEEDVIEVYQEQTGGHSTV
Melanocortin receptor 4, sequence (P32245 whole entry): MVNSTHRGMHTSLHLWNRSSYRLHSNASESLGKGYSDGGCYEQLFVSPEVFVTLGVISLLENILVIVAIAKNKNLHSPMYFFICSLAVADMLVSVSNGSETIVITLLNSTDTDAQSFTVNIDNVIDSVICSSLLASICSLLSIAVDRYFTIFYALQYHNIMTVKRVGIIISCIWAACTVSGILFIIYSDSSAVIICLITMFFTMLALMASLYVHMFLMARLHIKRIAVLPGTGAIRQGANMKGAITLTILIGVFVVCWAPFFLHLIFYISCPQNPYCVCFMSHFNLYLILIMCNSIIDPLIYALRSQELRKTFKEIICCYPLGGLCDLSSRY
26S proteasome non-ATPase regulatory subunit 14, sequence (O00487 whole entry): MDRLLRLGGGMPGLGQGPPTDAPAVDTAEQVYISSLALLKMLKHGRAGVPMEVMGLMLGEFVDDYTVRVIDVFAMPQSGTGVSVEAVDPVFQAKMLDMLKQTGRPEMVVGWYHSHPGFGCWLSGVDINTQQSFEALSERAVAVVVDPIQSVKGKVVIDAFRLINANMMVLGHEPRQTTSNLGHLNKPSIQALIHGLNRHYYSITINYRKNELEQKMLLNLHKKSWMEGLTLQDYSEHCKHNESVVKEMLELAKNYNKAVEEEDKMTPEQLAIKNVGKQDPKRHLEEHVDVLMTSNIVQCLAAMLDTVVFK
72 kDa type IV collagenase, sequence (P08253 whole entry): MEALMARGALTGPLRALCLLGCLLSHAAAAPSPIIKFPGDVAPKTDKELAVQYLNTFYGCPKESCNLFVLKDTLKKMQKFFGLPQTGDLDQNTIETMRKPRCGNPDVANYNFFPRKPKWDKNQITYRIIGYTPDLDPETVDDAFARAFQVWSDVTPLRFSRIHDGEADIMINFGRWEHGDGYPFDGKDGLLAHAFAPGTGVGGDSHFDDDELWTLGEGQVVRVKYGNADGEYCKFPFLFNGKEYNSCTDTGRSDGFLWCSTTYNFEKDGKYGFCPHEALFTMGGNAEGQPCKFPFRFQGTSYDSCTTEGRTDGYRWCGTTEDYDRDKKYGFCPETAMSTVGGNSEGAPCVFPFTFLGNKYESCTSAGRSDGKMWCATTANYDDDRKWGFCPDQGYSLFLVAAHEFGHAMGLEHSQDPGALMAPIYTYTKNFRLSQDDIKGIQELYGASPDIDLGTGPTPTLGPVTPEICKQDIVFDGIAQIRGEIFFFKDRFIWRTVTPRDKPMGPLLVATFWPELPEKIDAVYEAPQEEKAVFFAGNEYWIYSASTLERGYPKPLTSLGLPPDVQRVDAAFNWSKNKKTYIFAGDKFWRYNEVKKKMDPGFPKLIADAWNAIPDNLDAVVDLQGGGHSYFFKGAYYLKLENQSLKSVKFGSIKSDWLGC
DNA (cytosine-5)-methyltransferase 1, sequence (P26358 whole entry): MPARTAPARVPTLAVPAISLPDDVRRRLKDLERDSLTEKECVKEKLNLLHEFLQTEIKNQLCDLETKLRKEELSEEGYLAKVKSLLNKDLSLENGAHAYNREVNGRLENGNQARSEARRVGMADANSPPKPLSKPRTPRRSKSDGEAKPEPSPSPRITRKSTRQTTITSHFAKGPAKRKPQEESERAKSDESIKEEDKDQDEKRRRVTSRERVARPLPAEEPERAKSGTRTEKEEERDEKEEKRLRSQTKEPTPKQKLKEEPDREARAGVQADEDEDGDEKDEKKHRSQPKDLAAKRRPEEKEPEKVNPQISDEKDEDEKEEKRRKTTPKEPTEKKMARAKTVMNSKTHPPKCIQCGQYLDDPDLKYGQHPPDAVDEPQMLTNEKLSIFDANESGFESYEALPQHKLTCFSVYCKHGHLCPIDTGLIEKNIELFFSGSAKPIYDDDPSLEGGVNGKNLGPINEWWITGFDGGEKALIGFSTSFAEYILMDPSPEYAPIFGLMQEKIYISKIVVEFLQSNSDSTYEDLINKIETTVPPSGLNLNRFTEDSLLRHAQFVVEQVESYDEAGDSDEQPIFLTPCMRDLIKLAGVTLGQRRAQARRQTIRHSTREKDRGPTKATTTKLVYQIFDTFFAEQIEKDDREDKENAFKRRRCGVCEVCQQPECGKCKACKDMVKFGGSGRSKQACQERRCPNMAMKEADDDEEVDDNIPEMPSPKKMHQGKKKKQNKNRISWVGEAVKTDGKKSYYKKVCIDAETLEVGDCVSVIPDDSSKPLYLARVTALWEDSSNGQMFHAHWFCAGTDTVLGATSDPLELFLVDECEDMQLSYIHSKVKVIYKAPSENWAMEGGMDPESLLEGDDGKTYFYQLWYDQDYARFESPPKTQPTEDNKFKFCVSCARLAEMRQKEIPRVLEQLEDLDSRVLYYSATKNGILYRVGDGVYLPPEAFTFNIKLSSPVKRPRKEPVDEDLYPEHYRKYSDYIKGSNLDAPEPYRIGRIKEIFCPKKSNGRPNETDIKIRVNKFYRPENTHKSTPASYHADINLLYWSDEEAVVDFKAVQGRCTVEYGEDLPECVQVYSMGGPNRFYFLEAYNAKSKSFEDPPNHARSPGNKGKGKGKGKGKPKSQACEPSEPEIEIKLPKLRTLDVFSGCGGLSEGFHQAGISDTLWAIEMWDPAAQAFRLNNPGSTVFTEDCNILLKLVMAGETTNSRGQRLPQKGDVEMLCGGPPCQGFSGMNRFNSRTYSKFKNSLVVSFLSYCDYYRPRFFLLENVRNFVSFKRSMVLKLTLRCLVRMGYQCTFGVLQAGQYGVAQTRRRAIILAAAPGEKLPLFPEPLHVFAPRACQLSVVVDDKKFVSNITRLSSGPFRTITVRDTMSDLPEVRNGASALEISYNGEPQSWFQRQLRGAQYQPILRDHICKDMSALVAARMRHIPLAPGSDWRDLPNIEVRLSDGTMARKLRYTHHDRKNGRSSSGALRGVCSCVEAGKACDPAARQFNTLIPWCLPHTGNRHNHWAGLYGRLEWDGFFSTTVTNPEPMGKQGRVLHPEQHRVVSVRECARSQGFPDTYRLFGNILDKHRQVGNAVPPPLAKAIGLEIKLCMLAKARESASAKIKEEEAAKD
Galanin receptor type 3, sequence (O60755 whole entry): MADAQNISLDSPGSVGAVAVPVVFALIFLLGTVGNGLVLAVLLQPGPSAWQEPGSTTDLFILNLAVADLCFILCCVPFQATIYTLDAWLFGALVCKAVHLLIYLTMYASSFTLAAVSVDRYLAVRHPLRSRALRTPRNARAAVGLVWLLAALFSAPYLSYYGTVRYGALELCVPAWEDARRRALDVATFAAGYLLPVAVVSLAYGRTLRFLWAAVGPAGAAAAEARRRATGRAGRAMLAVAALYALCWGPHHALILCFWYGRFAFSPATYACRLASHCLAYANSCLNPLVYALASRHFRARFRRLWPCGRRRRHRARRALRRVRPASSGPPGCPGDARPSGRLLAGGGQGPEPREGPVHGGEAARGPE
Aurora kinase A, sequence (O14965 whole entry): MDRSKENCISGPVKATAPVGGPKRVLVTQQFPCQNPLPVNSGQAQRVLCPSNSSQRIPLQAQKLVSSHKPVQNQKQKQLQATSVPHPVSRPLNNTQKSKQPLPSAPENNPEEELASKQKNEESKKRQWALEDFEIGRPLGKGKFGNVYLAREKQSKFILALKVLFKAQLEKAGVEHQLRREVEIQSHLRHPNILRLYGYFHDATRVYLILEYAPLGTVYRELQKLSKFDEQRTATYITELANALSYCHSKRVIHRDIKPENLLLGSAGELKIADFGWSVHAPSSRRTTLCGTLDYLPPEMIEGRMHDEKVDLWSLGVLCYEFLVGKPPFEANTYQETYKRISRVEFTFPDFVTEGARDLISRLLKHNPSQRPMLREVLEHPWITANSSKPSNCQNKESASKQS
Large T antigen, sequence (P03070 whole entry): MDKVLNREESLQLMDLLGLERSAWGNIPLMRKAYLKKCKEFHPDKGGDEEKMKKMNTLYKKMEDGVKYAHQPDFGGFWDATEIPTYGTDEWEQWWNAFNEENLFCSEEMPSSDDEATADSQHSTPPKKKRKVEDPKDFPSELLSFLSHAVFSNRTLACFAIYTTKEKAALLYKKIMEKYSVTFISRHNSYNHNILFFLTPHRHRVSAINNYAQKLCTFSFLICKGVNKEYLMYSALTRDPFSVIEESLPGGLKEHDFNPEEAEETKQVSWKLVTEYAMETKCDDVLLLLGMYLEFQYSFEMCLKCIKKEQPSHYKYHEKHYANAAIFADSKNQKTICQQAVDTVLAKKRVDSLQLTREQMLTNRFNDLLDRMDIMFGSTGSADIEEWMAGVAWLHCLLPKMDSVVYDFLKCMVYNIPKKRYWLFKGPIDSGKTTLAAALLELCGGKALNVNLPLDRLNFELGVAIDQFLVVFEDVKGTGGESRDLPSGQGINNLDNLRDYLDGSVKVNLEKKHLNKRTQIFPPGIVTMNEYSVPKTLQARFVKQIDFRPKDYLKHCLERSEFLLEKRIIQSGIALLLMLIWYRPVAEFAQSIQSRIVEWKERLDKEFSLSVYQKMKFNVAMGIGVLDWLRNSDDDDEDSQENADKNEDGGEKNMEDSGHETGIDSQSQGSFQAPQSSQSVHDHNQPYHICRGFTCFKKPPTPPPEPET

CCOC(=O)c1c(N)ssc1=S
IC50 [1]: 8.48 µM (active) | IC50 (Large T antigen): 95.5 µM (active) | IC50 [2]: 3.81 µM (active)

O=C1CC2(CCCC2)CC(=O)N1c1ccccc1
EC50 (Insulin-degrading enzyme [3]): > 54.7 µM (inactive) | EC50 (HEK293 [4]): > 55.9 µM (inactive) | IC50 (HEK293 [5]): > 89.1 µM (inactive) | EC50 (Insulin-degrading enzyme [6]): > 54.7 µM (inactive)

O=S(=O)(Nc1c(S(=O)(=O)c2ccccc2)c2nc3ccccc3nc2n1C1CCCCC1)c1ccccc1
IC50 [7]: 9.65 µM (active) | EC50 (Streptokinase A): 5.18 µM (active) | AC50 [8]: 26.7 µM (active) | IC50 [9]: 5.23 µM (active) | IC50 [10]: > 66.6 µM (inactive) | IC50 [11]: 5.42 µM (active) | EC50 [12]: 5.18 µM (active) | EC50 (Streptococcus): 12 µM (active) | IC50 [13]: 21.7 µM (active)

O=C(CSc1c2c(nc3cc(Cl)ccc13)CCCC2)NCCN1CCOCC1
IC50 [14]: > 64.6 µM (inactive) | IC50 (Melanocortin receptor 4): > 64.6 µM (inactive)

Cc1ccccc1CN1C(=O)C(C)Sc2ccc(-c3ccco3)cc21 (configuration not stated)
IC50 [15]: > 100 µM (inactive) | IC50 [11]: 14.2 µM (active) | IC50 [16]: 36.2 µM (active) | IC50 (Prothrombin): 43.3 µM (active) | IC50 [13]: 31.3 µM (active)

Nc1ncnc2sc3c(c12)-c1ccc(NC(=O)Nc2cccc(C(F)(F)F)c2)cc1CC3
Ki (Aurora kinase B): 0.00126 µM (active) | Ki (Aurora kinase A): 0.1 µM (active)

C#CCOCCOCCOCCNc1nc(N2CCN(C(=O)CCCCCCCCCCNC(=O)[C@H](CCCCN)n3cc(C)nn3)CC2)nc(N2CCN(C(=O)CCCCCCCCCCNC(=O)[C@H](CO)n3cc(CCCSC)nn3)CC2)n1
EC50 (Insulin-degrading enzyme [3]): > 54.7 µM (inactive) | IC50 [17]: 6.96 µM (active) | IC50 (Bcl-2-related protein A1): > 20 µM (inactive) | EC50 (HEK293 [4]): > 55.9 µM (inactive) | IC50 (HEK293 [5]): 9.88 µM (active) | IC50 [18]: 4.05 µM (active) | EC50 (Insulin-degrading enzyme [6]): > 6.08 µM (active)

CC(=O)OC[C@]12CC[C@H]3[C@@](C)(CC[C@H]4C(C)(C)CCC[C@]34C)[C@@H]1CC(C1=CC(=O)OC1O)O2 (some centres not stated)
IC50 (Galanin receptor type 3): > 1.11 µM (active) | AC50 [19]: 8.6 µM (active) | AC50 [20]: 0.634 µM (active) | AC50 [21]: 3.12 µM (active) | IC50 [14]: 55 µM (inactive) | IC50 (Melanocortin receptor 4): 15.2 µM (inactive) | EC50 (cells): > 29.9 µM (inactive)

Cc1cc(Cl)c(S(=O)(=O)N2CCCC2)cc1OCC(=O)NC1CCCCC1
IC50 [1]: 4.68 µM (active) | AC50 [22]: 18.1 µM (active) | IC50 [2]: 4.47 µM (active)
